Data on two compounds can be found in US20020170078A1, “Calcineurin-related transgenic mammals, compositions and methods” (priority 2001, published 2002).

The test deals with Schaffer collateral pathway to area CA1 of hippocampal slices. In words: 1-train (100 Hz) LTP, field potential recordings in hippocampal slices. The format is cell-based, mouse.

As for `NC(CCCP(=O)(O)O)C(=O)O` (racemic) [DL-AP5], the “effect on the enhanced LTP” value (100 uM, at least 20 min pretreatment, mutant slices) is listed as “abolished”.
With `CCCCCCOC(=O)[C@]1(O)C[C@@H]2O[C@@]1(C)n1c3ccccc3c3c4c(c5c6ccccc6n2c5c31)C(=O)NC4` [KT5720], the “1-train LTP, % baseline 30 min after tetanus” value is listed as 134±6 % baseline. Besides, the “effect on 1-train LTP” value (control slices, 30 min pretreatment) was “no effect”. The “effect on the increased potentiation (enhanced 1-train LTP)” value (mutant slices) is recorded as “suppressed”.
